# According to patent publication US11339156B2, “3-(1H-pyrazol-4-yl)pyridine allosteric modulators of the M4 muscarinic acetylcholine receptor” (Merck Sharp & Dohme Corp., priority 2017, dated 2022):
# Molecular target: T1, human M4 muscarinic acetylcholine receptor (Homo sapiens, UniProt P08173)
# T1 construct: expressed in transfected cells
# T1 sequence (P08173 1-479): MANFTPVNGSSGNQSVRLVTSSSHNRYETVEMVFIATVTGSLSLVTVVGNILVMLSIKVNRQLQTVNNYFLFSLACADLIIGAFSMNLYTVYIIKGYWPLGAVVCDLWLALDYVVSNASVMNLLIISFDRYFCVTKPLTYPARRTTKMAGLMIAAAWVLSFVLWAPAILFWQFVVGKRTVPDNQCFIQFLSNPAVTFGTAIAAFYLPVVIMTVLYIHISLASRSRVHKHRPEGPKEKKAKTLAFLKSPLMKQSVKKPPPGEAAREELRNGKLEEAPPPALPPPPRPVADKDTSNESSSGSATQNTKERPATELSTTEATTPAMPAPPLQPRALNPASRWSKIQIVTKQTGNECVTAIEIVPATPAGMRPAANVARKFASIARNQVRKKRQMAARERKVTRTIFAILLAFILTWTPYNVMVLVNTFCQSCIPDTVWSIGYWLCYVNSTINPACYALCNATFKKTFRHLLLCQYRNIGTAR
# Assay: human FLIPR-based M4 PAM assay (CHO-K1 cells with human M4 receptor and Gαqi5, calcium dye fluorescence)
# Assay type: cell-based
# Conditions: inflection point of 4 parameter logistic fit; acetylcholine added at 20% of maximum response; read-out: M4PAM IP
# Method in brief: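 The FLIPR read recorded 4 min after compound was added across a concentration range, then 3.5 min after acetylcholine giving 20% of its maximal response, with an occasional extra EC70 addition. Cells were dye-loaded for about 1 h at 37 °C. Potency is the curve inflection point from a four-parameter logistic fit.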
row,EC50 [µM],SMILES
1,0.0317,"CN1Cc2ccc(-c3nc(Cl)ccc3-c3cnn(CC4CCCCC4)c3)cc2C1=O [Example 115, 6-{6-chloro-3-[1-(cyclohexylmethyl)-1H-pyrazol-4-yl]pyridin-2-yl}-2-methyl-2,3-dihydro-1H-isoindol-1-one]"
2,0.0846,"CC(C)CCn1cc(-c2cccnc2-c2ccc3c(c2)C(=O)N(C2CCC2)C3)cn1 [Example 116, 2-cyclobutyl-6-{3-[1-(3-methylbutyl)-1H-pyrazol-4-yl]pyridin-2-yl}-2,3-dihydro-1H-isoindol-1-one]"
3,0.0334,"CC(C)(C)Cn1cc(-c2ccc(C#N)nc2-c2ccn3c(Cl)cnc3c2)cn1 [Example 117, 6-(3-chloroimidazo[1,2-a]pyridin-7-yl)-5-(1-neopentyl-1H-pyrazol-4-yl)picolinonitrile]"
4,0.0307,"Cc1cn2ccc(-c3nc(C#N)ccc3-c3cnn(CC4(F)CCC4)c3)cc2n1 [Example 118, 5-(1-((1-fluorocyclobutyl)methyl)-1H-pyrazol-4-yl)-6-(2-methylimidazo[1,2-a]pyridin-7-yl)picolinonitrile]"
5,0.0559,"Cc1cn2ccc(-c3nc(C#N)ccc3-c3cnn(CCC(C)(C)F)c3)cc2n1 [Example 119, 5-[1-(3-fluoro-3-methylbutyl)-1H-pyrazol-4-yl]-6-(2-methylimidazo[1,2-a]pyridin-7-yl)pyridine-2-carbonitrile]"
6,0.401,"Cc1nc2cc(-c3ncc(F)cc3-c3cnn(CCC(C)(C)F)c3)ccc2n1C [Example 120, 5-(5-fluoro-3-(1-(3-fluoro-3-methylbutyl)-1H-pyrazol-4-yl)pyridin-2-yl)-1,2-dimethyl-1H-benzo[d]imidazole]"
7,0.0781,"Cc1cn2ccc(-c3nc(C#N)ccc3-c3cnn(CC(C)(C)F)c3)cc2n1 [Example 122, 5-(1-(2-fluoro-2-methylpropyl)-1H-pyrazol-4-yl)-6-(2-methylimidazo[1,2-a]pyridin-7-yl)picolinonitrile]"
8,0.0623,"C#Cc1ccc(-c2cnn(CC(C)(C)C)c2)c(-c2ccn3cc(C)nc3c2)n1 [Example 123, 7-(6-ethynyl-3-(1-neopentyl-1H-pyrazol-4-yl)pyridin-2-yl)-2-methylimidazo[1,2-a]pyridine]"
9,0.0605,"N#Cc1ccc(-c2cnn(CC(F)C3CC3)c2)c(-c2ccn3ccnc3c2)n1 (stereo not drawn) [Example 124, 5-(1-(2-cyclopropyl-2-fluoroethyl)-1H-pyrazol-4-yl)-6-(imidazo[1,2-a]pyridin-7-yl)picolinonitrile]"
10,0.161,"Cc1cn2ccc(-c3nc(C#N)ccc3-c3cnn(CC(C)(O)C(F)(F)F)c3)cc2n1 (stereo not drawn) [Example 125, 6-(2-methylimidazo[1,2-a]pyridin-7-yl)-5-(1-(3,3,3-trifluoro-2-hydroxy-2-methylpropyl)-1H-pyrazol-4-yl)picolinonitrile]"
11,0.0391,"Cc1cn2ccc(-c3nc(C#N)ccc3-c3cnn(CC(C)C(F)(F)F)c3)cc2n1 (stereo not drawn) [Example 126, 6-(2-methylimidazo [1,2-a]pyridin-7-yl)-5-(1-(3,3,3-trifluoro-2-methylpropyl)-1H-pyrazol-4-yl)picolinonitrile]"
12,0.139,"Cc1cn2ccc(-c3nc(C#N)ccc3-c3cnn(CC(C)(C)CO)c3)cc2n1 [Example 127, 5-(1-(3-hydroxy-2,2-dimethylpropyl)-1H-pyrazol-4-yl)-6-(2-methylimidazo[1,2-a]pyridin-7-yl)picolinonitrile]"
13,0.048,"Cc1nc2cc(-c3nc(C#N)ccc3-c3cnn(C[C@]4(F)C[C@@H](F)C4)c3)ccc2n1C [Example 128, 5-(1-(((1s,3s)-1,3-difluorocyclobutyl)methyl)-1H-pyrazol-4-yl)-6-(1,2-dimethyl-1H-benzo[d]imidazol-5-yl)picolinonitrile]"
14,0.114,"Cc1nc2cc(-c3nc(C#N)ccc3-c3cnn(C[C@]4(F)C[C@H](F)C4)c3)ccc2n1C [Example 129, 5-(1-(((1r,3r)-1,3-difluorocyclobutyl)methyl)-1H-pyrazol-4-yl)-6-(1,2-dimethyl-1H-benzo[d]imidazol-5-yl)picolinonitrile]"
15,0.381,"Cc1nc2cc(-c3ncccc3-c3cnn(CC4(F)CC(F)(F)C4)c3)ccn2n1 [Example 130, 2-methyl-7-(3-(1-((1,3,3-trifluorocyclobutyl)methyl)-1H-pyrazol-4-yl)pyridin-2-yl)-[1,2,4]triazolo[1,5-a]pyridine]"
16,0.0773,"Cc1nc(-c2ccc3c(c2)nc(C)n3C)c(-c2cnn(CC(C)(C)C(F)(F)F)c2)cc1F [Example 131, 5-(5-fluoro-6-methyl-3-(1-(3,3,3-trifluoro-2,2-dimethylpropyl)-1H-pyrazol-4-yl)pyridin-2-yl)-1,2-dimethyl-1H-benzo[d]imidazole]"
17,0.249,"CC(C)(Cn1cc(-c2ccc(C(N)=O)nc2-c2ccn3ccnc3c2)cn1)C(F)(F)F [Example 132, 6-(imidazo[1,2-a]pyridin-7-yl)-5-(1-(3,3,3-trifluoro-2,2-dimethylpropyl)-1H-pyrazol-4-yl)picolinamide]"
18,0.0575,"CC1(Cn2cc(-c3ccc(C#N)nc3-c3ccn4ccnc4c3)cn2)CC1(F)F (stereo not drawn) [Example 134, 5-(1-((2,2-difluoro-1-methylcyclopropyl)methyl)-1H-pyrazol-4-yl)-6-(imidazo[1,2-a]pyridin-7-yl)picolinonitrile]"
19,0.0365,"CC(C)(C)Cn1ncc(-c2ccc(C#N)nc2-c2ccn3ccnc3c2)c1F [Example 135, 5-[1-(2,2-dimethylpropyl)-5-fluoro-1H-pyrazol-4-yl]-6-imidazo[1,2-a]pyridin-7-ylpyridine-2-carbonitrile]"
20,0.741,"Cc1ccc(-c2cnn(CCC(C)C)c2C#N)c(-c2ccn3ccnc3c2)n1 [Example 136, 4-(2-imidazo[1,2-a]pyridin-7-yl-6-methylpyridin-3-yl)-1-(3-methylbutyl)-1H-pyrazole-5-carbonitrile]"
21,0.345,"CSc1cnc(-c2ccc3c(c2)C(=O)NC3)c(-c2cnn(CCC(C)C)c2)c1 [Example 137, 6-(3-(1-isopentyl-1H-pyrazol-4-yl)-5-(methylthio)pyridin-2-yl)isoindolin-1-one]"
22,0.0599,"Cc1cc(-c2cnn(CC3(C(F)(F)F)CC3)c2)c(-c2ccn3ccnc3c2)nc1C#N [Example 138, 6-imidazo[1,2-a]pyridin-7-yl-3-methyl-5-(1-{[1-(trifluoromethyl)cyclopropyl]methyl}-1H-pyrazol-4-yl)pyridine-2-carbonitrile]"
23,0.162,"Cc1cc(-c2cnn(CC3(C(F)(F)F)CC3)c2)c(-c2ccn3ccnc3c2)nc1C [Example 139, 7-[5,6-dimethyl-3-(1-{[1-(trifluoromethyl)cyclopropyl]methyl}-1H-pyrazol-4-yl)pyridin-2-yl]imidazo[1,2-a]pyridine]"

# Same assay, conditions: read-out: HuM4PAM
row,EC50 [µM],SMILES
1,0.107,"CC(C)(F)Cn1cc(-c2ccc(C#N)nc2-c2ccn3ccnc3c2)cn1 [Example 121, 5-(1-(2-fluoro-2-methylpropyl)-1H-pyrazol-4-yl)-6-(imidazo[1,2-a]pyridin-7-yl)picolinonitrile]"
